Literature values, collected in patent US20050118265A1, “Antifungal oral dosage forms and the methods for preparation” (priority 2003, published 2005).

What was measured:
[1] = based on extrapolation of values obtained from methanolic solutions
[2] = pH 8.1

CCC(C)n1ncn(-c2ccc(N3CCN(c4ccc(OCC5COC(Cn6cncn6)(c6ccc(Cl)cc6Cl)O5)cc4)CC3)cc2)c1=O (racemic) [Itraconazole, (±)-1-[(RS)-sec-butyl]-4-[p-[4-[p-[[(2R,4S)-2-(2,4-dichlorophenyl)-2-(1H-1,2,4-triazol-1-ylmethyl)-1,3-dioxolan-4-yl]methoxy]phenyl]-1-piperazinyl]phenyl]-Ä 2-1,2,4-triazolin-5-one]
pKa [1]: 3.70 | log (n-octanol/water) partition coefficient [2]: 5.66 | solubility in alcohol (alcohol): very slightly soluble | solubility in dichloromethane (dichloromethane): freely soluble | solubility in ethanol (ethanol alone): poorly soluble | solubility in water (water): insoluble
